Test results from ChEMBL document CHEMBL6134844, “Development of Next-Generation Antimalarial Acridones with Radical Cure Potential” (J Med Chem, 2025).
Active and inactive are the calls of the source. The calls are words filed in the database; no cut-off is given here.

Tests used:
[1] = Tmax in male ICR-CD1 mouse plasma at 80 mg/kg, po; assay type: ADME, organism-based
Plasmodium yoelii [2] = experiment: In vivo antiplasmodial activity against asexual blood-stage (ABS) Plasmodium yoelii MRA-428 infected in 4-day suppression CF1 mouse model assessed as reduction in parasitemia treated 24 hrs post infection daily measured on day 4; assay type: functional
Plasmodium falciparum [3] = experiment: Antiplasmodial activity against asexual blood-stage (ABS) CQ-sensitive Plasmodium falciparum D6 infected in human erythrocytes assessed as reduction in fluorescence measured after 72 hrs by Malaria SYBR Green I-based Fluorescence (MSF) assay; assay type: functional, organism-based; conditions: D6, Erythrocyte
[4] = Apparent oral clearance in male ICR-CD1 mouse liver at 80 mg/kg, po; assay type: ADME, organism-based
[5] = human, microsomes, 1 h
[6] = Toxicity in CF1 mouse infected with asexual blood-stage (ABS) Plasmodium yoelii MRA-428 assessed as behavioural change at 0.3 to 30 mg/kg, po treated 24 hrs post infection measured after 4 days; assay type: organism-based; conditions: in vivo, dose 0.3-30 mg/kg
Plasmodium berghei [7] = experiment: In vivo antiplasmodial activity against luciferase expressing liver stage Plasmodium berghei ANKA MRA-868 sporozoites infected in Albino C57BL/6 mouse model assessed as protection at 4 mg/kg, po daily measured 24 to 72 hrs by real-time In Vivo Imaging System (IVIS); assay type: functional, organism-based; conditions: time lower 24.0 hrs, time upper […]
Plasmodium cynomolgi [8] = experiment: Antiplasmodial activity against schizont Plasmodium cynomolgi B strain infected in Macaca mulatta hepatocytes incubated with sporozoite containing salivary gland homogenate obtained from dissected Anopheles dirus mosquitoes (infected with Plasmodium cynomolgi B strain) treatment started on day 4 post infection and continued daily for 4 days into fresh changed media until day 8 assessed as Liver stage (LS) activity by measuring prophylactic mode by immunofluorescent staining analysis; assay type: functional, organism-based; conditions: Hepatocyte
[9] = AUClast in male ICR-CD1 mouse liver at 80 mg/kg, po; assay type: ADME, organism-based
[10] = Selectivity index, ratio of CC50 for Macaca mulatta hepatocytes to IC50 for antiplasmodial activity against schizont Plasmodium cynomolgi B strain infected in Macaca mulatta hepatocytes incubated with sporozoite containing salivary gland homogenate obtained from dissected Anopheles dirus mosquitoes (infected with Plasmodium cynomolgi B strain) treatment started on day 4 post infection and continued daily for 4 days into fresh changed media until day 8 assessed as Liver stage (LS) activity by measuring radical cure mode by immunofluorescent staining analysis; assay type: toxicity, cell-based; conditions: rhesus monkey, read-out: Selectivity Index
Plasmodium cynomolgi [11] = experiment: Antiplasmodial activity against hypnozoite Plasmodium cynomolgi B strain infected in Macaca mulatta hepatocytes incubated with sporozoite containing salivary gland homogenate obtained from dissected Anopheles dirus mosquitoes (infected with Plasmodium cynomolgi B strain) treatment started on day 4 post infection and continued daily for 4 days into fresh changed media until day 8 assessed as Liver stage (LS) activity by measuring radical cure mode by immunofluorescent staining analysis; assay type: functional, organism-based; conditions: Hepatocyte
Hepatocyte = experiment: Cytotoxicity against Macaca mulatta hepatocytes assessed as cell viability measured after 48 hrs by MTT assay; assay type: toxicity, cell-based; conditions: rhesus monkey, 48 h
[12] = Selectivity index, ratio of CC50 for Macaca mulatta hepatocytes to IC50 for antiplasmodial activity against hypnozoite Plasmodium cynomolgi B strain infected in Macaca mulatta hepatocytes incubated with sporozoite containing salivary gland homogenate obtained from dissected Anopheles dirus mosquitoes (infected with Plasmodium cynomolgi B strain) treatment started on day 4 post infection and continued daily for 4 days into fresh changed media until day 8 assessed as Liver stage (LS) activity by measuring prophylactic mode by immunofluorescent staining analysis; assay type: toxicity, cell-based; conditions: rhesus monkey, read-out: Selectivity Index
[13] = Half life in male ICR-CD1 mouse liver at 80 mg/kg, po; assay type: ADME, organism-based
Plasmodium falciparum [14] = experiment: Antiplasmodial activity against asexual blood-stage (ABS) ATV-resistant clinical isolate Plasmodium falciparum Tm90-C2B infected in human erythrocytes assessed as reduction in fluorescence measured after 72 hrs by Malaria SYBR Green I-based Fluorescence (MSF) assay; assay type: functional, organism-based; conditions: Erythrocyte
[15] = AUC(0 to infinity) in male ICR-CD1 mouse liver at 80 mg/kg, po; assay type: ADME, organism-based
[16] = mouse, microsomes, 1 h
[17] = Toxicity in CF1 mouse infected with asexual blood-stage (ABS) Plasmodium yoelii MRA-428 assessed as clinical toxicity at 0.3 to 30 mg/kg, po treated 24 hrs post infection measured after 4 days; assay type: organism-based; conditions: in vivo, dose 0.3-30 mg/kg
[18] = Selectivity index, ratio of CC50 for Macaca mulatta hepatocytes to IC50 for antiplasmodial activity against hypnozoite Plasmodium cynomolgi B strain infected in Macaca mulatta hepatocytes incubated with sporozoite containing salivary gland homogenate obtained from dissected Anopheles dirus mosquitoes (infected with Plasmodium cynomolgi B strain) treatment started on day 4 post infection and continued daily for 4 days into fresh changed media until day 8 assessed as Liver stage (LS) activity by measuring radical cure mode by immunofluorescent staining analysis; assay type: toxicity, cell-based; conditions: rhesus monkey, read-out: Selectivity Index
Plasmodium cynomolgi [19] = experiment: Antiplasmodial activity against hypnozoite Plasmodium cynomolgi B strain infected in Macaca mulatta hepatocytes incubated with sporozoite containing salivary gland homogenate obtained from dissected Anopheles dirus mosquitoes (infected with Plasmodium cynomolgi B strain) treatment started on day 4 post infection and continued daily for 4 days into fresh changed media until day 8 assessed as Liver stage (LS) activity by measuring prophylactic mode by immunofluorescent staining analysis; assay type: functional, organism-based; conditions: Hepatocyte
[20] = Cmax in male ICR-CD1 mouse liver at 80 mg/kg, po; assay type: ADME, organism-based
Plasmodium berghei [21] = experiment: In vivo antiplasmodial activity against luciferase expressing liver stage Plasmodium berghei ANKA MRA-868 sporozoites infected in Albino C57BL/6 mouse model assessed as protection at 10 mg/kg, po daily measured 24 to 72 hrs by real-time In Vivo Imaging System (IVIS); assay type: functional; conditions: time lower 24.0 hrs, time upper […]
[22] = Selectivity index, ratio of CC50 for Macaca mulatta hepatocytes to IC50 for antiplasmodial activity against schizont Plasmodium cynomolgi B strain infected in Macaca mulatta hepatocytes incubated with sporozoite containing salivary gland homogenate obtained from dissected Anopheles dirus mosquitoes (infected with Plasmodium cynomolgi B strain) treatment started on day 4 post infection and continued daily for 4 days into fresh changed media until day 8 assessed as Liver stage (LS) activity by measuring prophylactic mode by immunofluorescent staining analysis; assay type: toxicity, cell-based; conditions: rhesus monkey, read-out: Selectivity Index
[23] = AUCextrap in male ICR-CD1 mouse plasma at 80 mg/kg, po; assay type: ADME, organism-based
Plasmodium falciparum [24] = experiment: Antiplasmodial activity against asexual blood-stage (ABS) MDR Plasmodium falciparum Dd2 infected in human erythrocytes assessed as reduction in fluorescence measured after 72 hrs by Malaria SYBR Green I-based Fluorescence (MSF) assay; assay type: functional, organism-based; conditions: Dd2, Erythrocyte
HepG2 = experiment: Cytotoxicity against human HepG2 cells assessed as cell viability measured after 48 hrs by MTT assay; assay type: functional, cell-based; conditions: HepG2, 48 h
Plasmodium cynomolgi [25] = experiment: Antiplasmodial activity against schizont Plasmodium cynomolgi B strain infected in Macaca mulatta hepatocytes incubated with sporozoite containing salivary gland homogenate obtained from dissected Anopheles dirus mosquitoes (infected with Plasmodium cynomolgi B strain) treatment started on day 4 post infection and continued daily for 4 days into fresh changed media until day 8 assessed as Liver stage (LS) activity by measuring radical cure mode by immunofluorescent staining analysis; assay type: functional, organism-based; conditions: Hepatocyte
Plasmodium falciparum [26] = experiment: Ex vivo antiplasmodial activity against clinical isolate Plasmodium falciparum isolated from Ugandan measured after 72 hrs by growth inhibition assay; assay type: functional, organism-based
[27] = AUCextrap in male ICR-CD1 mouse liver at 80 mg/kg, po; assay type: ADME, organism-based
Plasmodium yoelii [28] = experiment: In vivo antiplasmodial activity against asexual blood-stage (ABS) Plasmodium yoelii MRA-428 infected in 4-day suppression CF1 mouse model assessed as reduction in parasitemia by measuring protection at 30 mg/kg, po treated 24 hrs post infection daily measured up to 28 days; assay type: functional, organism-based; conditions: time <= 28.0 day
Plasmodium yoelii [29] = experiment: In vivo antiplasmodial activity against asexual blood-stage (ABS) Plasmodium yoelii MRA-428 infected in 4-day suppression CF1 mouse model assessed as reduction in parasitemia by measuring cured mouse at 100 mg/kg, po treated 24 hrs post infection daily for 4 days; assay type: functional, organism-based

Structure (SMILES) | IC50 (Plasmodium falciparum [3]) [nM] | t1/2 [5] [h] | Activity [6] | IC50 (Plasmodium cynomolgi [8]) [nM] | selectivity ratio at 96 h [10] | IC50 (Plasmodium cynomolgi [11]) [nM] | CC50 (Hepatocyte) [nM] | selectivity ratio at 96 h [12] | IC50 (Plasmodium falciparum [14]) [nM] | CLH [16] [µL/min/mg] | Activity [17] | selectivity ratio at 96 h [18] | IC50 (Plasmodium cynomolgi [19]) [nM] | selectivity ratio at 96 h [22] | IC50 (Plasmodium falciparum [24]) [nM] | IC50 (HepG2) [nM] | IC50 (Plasmodium cynomolgi [25]) [nM] | further results
O=c1c2cc(F)c(Oc3ccc(OC(F)(F)F)cc3)cc2[nH]c2cc(Cl)cc(F)c12 | 0.00074 | > 1 | Non-toxic | 40 | 1.71 | 560 | 580 | 3.62 | 0.475 | 16.1 | Non-toxic | 1.04 | 160 | 14.5 | 0.00042 | > 200000 | 340 | Tmax [1]: 4 h; ED50 (Plasmodium yoelii [2]): 0.16 mg/kg; ED90 (Plasmodium yoelii [2]): 0.3 mg/kg; CL/F [4]: 1.05 mL/min/kg; Activity (Plasmodium berghei [7]): Not active; Out Of 5 - 0 Mouse Cured; AUC(0-t) [9]: 40000 ng·h/mL; half-life [13]: 20.9 h; AUC(0-inf) [15]: 41300 ng·h/mL; Cmax [20]: 7980 ng/mL; Activity (Plasmodium berghei [21]): Not active; Out Of 5 - 0 Mouse Cured; AUC [23]: 64.6 ng·h/mL; IC50 (Plasmodium falciparum [26]): 0.957 nM; AUC [27]: 3.14%
O=c1c2ccc(OCc3cccc(OC(F)(F)F)c3)cc2[nH]c2cc(Cl)cc(F)c12 | 0.077 | > 1 | Non-toxic | 20 | 5.34 | 710 | 3310 | 12.6 | 0.977 | 57.4 | Non-toxic | 4.66 | 250 | 165 | 0.01 | > 200000 | 620 | Activity (Plasmodium yoelii [28]): Active; Out Of 4 - 3 Mouse Cured; Activity (Plasmodium yoelii [29]): Active
